Results as given in ChEMBL document CHEMBL1201862, “PubChem BioAssay data set” (2004).
The source made the active and inactive calls.

How the values were obtained:
[1] = molecular target: 5-hydroxytryptamine receptor 2A (Mus musculus, UniProt P35363); assay type: functional, cell-based;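 further: CHO-K1 cells with tagged receptor and beta-arrestin; agonist potency measured as compound-induced activation of the receptor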
Mu-type opioid receptor = Mu-type opioid receptor (Homo sapiens, UniProt P35372); assay type: functional, cell-based;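 further: U2OS cells with beta-arrestin recruitment to OPRM1 by beta-gal complementation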
Sequence of Mu-type opioid receptor (P35372 whole entry): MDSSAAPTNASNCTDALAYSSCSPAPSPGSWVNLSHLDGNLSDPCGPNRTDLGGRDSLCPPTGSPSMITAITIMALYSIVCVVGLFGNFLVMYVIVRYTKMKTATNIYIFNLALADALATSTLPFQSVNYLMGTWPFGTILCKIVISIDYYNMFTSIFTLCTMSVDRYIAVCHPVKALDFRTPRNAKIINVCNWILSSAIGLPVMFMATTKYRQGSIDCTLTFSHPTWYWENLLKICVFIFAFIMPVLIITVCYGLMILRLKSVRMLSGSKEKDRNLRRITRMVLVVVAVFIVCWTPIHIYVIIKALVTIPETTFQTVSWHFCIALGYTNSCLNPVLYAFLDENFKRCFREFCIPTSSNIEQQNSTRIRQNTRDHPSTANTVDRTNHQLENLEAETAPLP

[2] = molecular target: Tyrosyl-DNA phosphodiesterase 2 (Homo sapiens, UniProt O95551); assay: potency against TDP2 phosphodiesterase activity – biochemical, epi absorbance, IC50, dose response (AID 743297)
Sequence of Tyrosyl-DNA phosphodiesterase 2 (O95551 whole entry): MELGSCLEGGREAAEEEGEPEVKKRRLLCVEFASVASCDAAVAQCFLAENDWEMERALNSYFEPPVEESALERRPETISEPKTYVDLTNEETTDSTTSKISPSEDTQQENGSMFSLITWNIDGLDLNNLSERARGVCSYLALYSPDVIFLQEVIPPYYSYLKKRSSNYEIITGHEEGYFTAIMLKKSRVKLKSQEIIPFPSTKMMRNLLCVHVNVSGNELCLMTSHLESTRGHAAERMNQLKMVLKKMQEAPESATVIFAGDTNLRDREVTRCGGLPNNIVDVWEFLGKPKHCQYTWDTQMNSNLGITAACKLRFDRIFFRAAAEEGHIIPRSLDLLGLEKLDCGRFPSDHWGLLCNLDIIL

Caspase-6 = molecular target: T1, Caspase-6 (Homo sapiens, UniProt P55212); assay: inhibition of CASP6 peptide cleavage – biochemical, VEID-R110 fluorescence, cherry-pick, dose response (AID 720632)
T1 sequence (P55212 whole entry): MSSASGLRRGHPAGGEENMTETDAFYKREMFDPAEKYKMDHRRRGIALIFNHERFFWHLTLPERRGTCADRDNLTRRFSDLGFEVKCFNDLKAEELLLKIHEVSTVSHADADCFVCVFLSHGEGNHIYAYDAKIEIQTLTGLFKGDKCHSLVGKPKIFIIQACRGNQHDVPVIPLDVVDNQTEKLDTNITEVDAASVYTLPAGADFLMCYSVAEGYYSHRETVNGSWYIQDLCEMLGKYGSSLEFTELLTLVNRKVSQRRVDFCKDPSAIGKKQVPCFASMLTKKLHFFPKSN

[3] = molecular target: T2, Sentrin-specific protease 8 (Homo sapiens, UniProt Q96LD8); assay type: functional
T2 sequence (Q96LD8 whole entry): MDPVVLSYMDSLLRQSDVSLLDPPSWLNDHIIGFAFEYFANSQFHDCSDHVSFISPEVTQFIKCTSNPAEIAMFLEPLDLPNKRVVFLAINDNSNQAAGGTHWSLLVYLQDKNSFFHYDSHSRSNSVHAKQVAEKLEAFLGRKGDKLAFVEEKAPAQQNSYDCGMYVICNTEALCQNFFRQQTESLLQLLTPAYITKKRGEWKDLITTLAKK

Caspase-3 = molecular target: T3, Caspase-3 (Homo sapiens, UniProt P42574); assay: Dose-response confirmation of uHTS inhibitor hits of Sentrin-Specific Protease 8 in a Caspase-3 Fluorescence assay.; assay type: functional
T3 sequence (P42574 whole entry): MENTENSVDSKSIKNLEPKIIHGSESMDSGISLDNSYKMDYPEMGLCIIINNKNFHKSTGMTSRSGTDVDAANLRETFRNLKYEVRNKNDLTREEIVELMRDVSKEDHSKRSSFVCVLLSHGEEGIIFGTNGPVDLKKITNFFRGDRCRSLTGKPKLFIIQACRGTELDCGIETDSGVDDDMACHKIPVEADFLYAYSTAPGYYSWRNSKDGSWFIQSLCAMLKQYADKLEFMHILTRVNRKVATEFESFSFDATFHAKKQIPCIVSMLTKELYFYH

[4] = molecular target: T2, Sentrin-specific protease 8; assay type: functional; remark: listed apart in the source
[5] = molecular target: Protein disulfide-isomerase A6 (Homo sapiens, UniProt Q15084); assay: Secondary Assay for Selectivity of PDI Inhibitors (against ERp5) Measured in Biochemical System Using Plate Reader - 2137-04_Inhibitor_Dose_DryPowder_Activity_Set3.
Sequence of Protein disulfide-isomerase A6 (Q15084 whole entry): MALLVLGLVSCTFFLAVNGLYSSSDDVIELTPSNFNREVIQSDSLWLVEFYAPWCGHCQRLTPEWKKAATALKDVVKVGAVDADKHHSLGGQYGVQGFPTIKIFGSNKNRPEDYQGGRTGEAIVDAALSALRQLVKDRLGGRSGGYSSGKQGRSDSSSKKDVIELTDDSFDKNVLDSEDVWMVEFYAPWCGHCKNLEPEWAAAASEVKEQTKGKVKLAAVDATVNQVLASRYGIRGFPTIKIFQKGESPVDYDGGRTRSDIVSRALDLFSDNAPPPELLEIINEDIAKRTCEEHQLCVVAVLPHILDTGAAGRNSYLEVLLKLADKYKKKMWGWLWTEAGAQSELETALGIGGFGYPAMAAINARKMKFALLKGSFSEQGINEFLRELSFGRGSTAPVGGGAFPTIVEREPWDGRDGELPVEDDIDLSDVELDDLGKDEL

ORF 73 = molecular target: T4, ORF 73 (Human herpesvirus 8, UniProt O40947); assay: KSHV LANA DNA-binding disruption – biochemical, fluorescence polarization, cherry-picked samples, dose response (AID 504725); design: species or system Human gammaherpesvirus 8;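 further: fluorescence polarization of a labeled DNA duplex reporting LANA DNA binding; potency is for inhibitors that block LANA binding to the DNA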
T4 sequence (O40947 whole entry): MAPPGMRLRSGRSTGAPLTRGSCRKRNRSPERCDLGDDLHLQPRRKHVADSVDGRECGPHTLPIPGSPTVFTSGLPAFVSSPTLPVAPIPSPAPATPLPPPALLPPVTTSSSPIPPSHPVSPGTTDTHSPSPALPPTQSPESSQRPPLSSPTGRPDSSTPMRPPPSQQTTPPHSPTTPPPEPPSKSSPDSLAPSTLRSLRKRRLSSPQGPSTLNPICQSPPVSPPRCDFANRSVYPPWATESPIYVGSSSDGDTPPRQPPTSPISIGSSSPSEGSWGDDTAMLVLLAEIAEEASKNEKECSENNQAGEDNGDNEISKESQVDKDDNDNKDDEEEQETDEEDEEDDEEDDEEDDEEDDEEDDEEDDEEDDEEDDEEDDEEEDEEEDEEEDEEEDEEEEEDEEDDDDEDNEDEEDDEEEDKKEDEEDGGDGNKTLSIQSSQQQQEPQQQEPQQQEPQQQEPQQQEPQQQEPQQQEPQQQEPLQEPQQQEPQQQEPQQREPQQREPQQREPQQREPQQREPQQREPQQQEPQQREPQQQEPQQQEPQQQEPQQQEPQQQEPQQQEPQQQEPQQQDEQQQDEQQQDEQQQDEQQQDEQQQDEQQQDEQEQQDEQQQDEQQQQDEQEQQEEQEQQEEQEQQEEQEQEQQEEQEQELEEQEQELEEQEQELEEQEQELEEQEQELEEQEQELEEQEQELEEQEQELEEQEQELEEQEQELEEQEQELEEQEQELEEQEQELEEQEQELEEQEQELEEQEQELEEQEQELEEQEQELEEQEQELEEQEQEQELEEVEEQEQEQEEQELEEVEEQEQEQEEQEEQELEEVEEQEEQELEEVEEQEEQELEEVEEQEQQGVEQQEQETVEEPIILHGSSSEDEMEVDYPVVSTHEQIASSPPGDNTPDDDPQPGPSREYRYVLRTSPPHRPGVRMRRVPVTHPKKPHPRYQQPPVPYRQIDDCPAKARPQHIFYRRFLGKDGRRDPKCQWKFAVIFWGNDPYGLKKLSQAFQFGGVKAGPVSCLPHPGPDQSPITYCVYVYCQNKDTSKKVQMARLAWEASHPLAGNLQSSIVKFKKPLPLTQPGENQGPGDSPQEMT

Beta-lactamase [6] = molecular target: Beta-lactamase (Pseudomonas aeruginosa, UniProt Q79MP6);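 further: biochemical dose-response test of metallo-beta-lactamase enzyme inhibition, read out by epi-absorbance; purified recombinant IMP-1 metallo-beta-lactamase with nitrocefin as substrate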
Sequence of Beta-lactamase (Pseudomonas aeruginosa, UniProt Q79MP6) (Q79MP6 whole entry): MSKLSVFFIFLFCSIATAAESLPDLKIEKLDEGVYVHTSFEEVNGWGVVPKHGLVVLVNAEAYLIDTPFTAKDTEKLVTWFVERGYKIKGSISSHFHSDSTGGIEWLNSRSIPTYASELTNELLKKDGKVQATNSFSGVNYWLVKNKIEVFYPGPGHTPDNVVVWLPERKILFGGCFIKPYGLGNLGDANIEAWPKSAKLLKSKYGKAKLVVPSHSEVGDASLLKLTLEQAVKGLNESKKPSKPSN

Insulin-degrading enzyme [7] = molecular target: T5, Insulin-degrading enzyme (Homo sapiens, UniProt P14735); assay: cellular IDE activation of Abeta substrate cleavage – fluorescence polarization, HEK cells, dose response (AID 588439); assay type: functional, cell-based
T5 sequence (P14735 whole entry): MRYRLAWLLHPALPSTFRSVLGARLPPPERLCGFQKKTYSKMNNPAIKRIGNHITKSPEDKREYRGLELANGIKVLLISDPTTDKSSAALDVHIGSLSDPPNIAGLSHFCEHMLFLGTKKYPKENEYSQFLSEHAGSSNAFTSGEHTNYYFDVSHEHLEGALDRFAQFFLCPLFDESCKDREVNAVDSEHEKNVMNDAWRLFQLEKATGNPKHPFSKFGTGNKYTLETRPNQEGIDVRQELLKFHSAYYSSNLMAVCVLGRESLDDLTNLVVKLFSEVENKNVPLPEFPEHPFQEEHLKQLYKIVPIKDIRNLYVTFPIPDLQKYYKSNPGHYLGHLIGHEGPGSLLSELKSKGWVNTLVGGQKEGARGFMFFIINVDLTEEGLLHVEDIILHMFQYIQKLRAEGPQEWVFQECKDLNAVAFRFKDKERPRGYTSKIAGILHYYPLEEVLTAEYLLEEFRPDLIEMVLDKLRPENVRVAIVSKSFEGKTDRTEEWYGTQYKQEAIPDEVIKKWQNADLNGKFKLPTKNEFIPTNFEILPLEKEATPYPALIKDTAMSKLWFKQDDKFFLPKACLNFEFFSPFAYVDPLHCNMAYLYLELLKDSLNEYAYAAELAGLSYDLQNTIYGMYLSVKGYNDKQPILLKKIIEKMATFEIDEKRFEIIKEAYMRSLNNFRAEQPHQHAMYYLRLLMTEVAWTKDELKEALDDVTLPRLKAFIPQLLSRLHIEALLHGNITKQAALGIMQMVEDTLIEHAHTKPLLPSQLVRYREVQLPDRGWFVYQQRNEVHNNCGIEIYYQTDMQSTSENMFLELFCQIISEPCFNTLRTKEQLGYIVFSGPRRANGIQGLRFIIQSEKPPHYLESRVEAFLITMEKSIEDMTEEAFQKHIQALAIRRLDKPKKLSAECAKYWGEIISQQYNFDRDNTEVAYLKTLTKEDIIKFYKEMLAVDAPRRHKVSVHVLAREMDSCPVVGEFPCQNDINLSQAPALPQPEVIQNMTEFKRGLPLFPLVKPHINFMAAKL

Insulin-degrading enzyme [8] = molecular target: T5, Insulin-degrading enzyme; assay: recombinant IDE activation, cell-free – biochemical, fluorescence polarization, counter-screen for IDE activator project, dose response (AID 588681)
HEK293 [9] = assay: optical interference in Abeta FP readout, dose response, artefact control for IDE activator project, biochemical, fluorescence polarization (AID 588442); assay type: functional, cell-based; conditions: Homo sapiens
HEK293 [10] = assay: membrane integrity loss in HEK cells – cell-based, fluorescence, cytotoxicity control for IDE activator project, dose response (AID 588440); assay type: functional; conditions: Homo sapiens;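 further: cytotoxicity by LDH release measuring loss of membrane integrity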
Beta-lactamase [11] = molecular target: Beta-lactamase (Salmonella choleraesuis (strain SC-B67), UniProt Q5J463)
Sequence of Beta-lactamase (Salmonella choleraesuis (strain SC-B67), UniProt Q5J463) (Q5J463 whole entry): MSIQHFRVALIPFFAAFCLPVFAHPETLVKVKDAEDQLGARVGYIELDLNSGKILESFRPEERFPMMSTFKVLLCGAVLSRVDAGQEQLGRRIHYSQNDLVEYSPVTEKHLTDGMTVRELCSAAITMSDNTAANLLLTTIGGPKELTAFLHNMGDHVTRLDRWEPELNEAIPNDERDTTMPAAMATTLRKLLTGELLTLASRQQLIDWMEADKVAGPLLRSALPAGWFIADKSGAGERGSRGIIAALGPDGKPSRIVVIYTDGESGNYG

Sequence of 5-hydroxytryptamine receptor 2A (P35363 whole entry): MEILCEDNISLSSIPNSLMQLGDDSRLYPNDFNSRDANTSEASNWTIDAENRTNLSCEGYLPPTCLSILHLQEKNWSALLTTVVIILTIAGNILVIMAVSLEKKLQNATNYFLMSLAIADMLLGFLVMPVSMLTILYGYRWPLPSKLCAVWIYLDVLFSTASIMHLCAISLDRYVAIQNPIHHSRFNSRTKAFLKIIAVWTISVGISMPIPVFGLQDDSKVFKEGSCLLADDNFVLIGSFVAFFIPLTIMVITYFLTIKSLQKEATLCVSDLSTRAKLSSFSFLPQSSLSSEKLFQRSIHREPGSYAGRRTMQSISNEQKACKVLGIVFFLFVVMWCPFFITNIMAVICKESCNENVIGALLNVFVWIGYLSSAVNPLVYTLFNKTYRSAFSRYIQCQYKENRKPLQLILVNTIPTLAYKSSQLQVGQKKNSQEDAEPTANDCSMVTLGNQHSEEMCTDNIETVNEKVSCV

In the case of `CCOC(=O)C1(Cc2ccc(Cl)cc2)CCN(C(C)CCn2cccn2)CC1` (stereo not given), the EC50 [1] is reported as 52.2 µM (inactive) and the EC50 (Mu-type opioid receptor) is reported as 92.5 µM (inactive).
With `COc1ccc(-n2[nH]c(C)cc2=O)cc1` the IC50 [2] was > 128 µM (inactive).
In the case of `CCOCCOc1cc(NCc2ccccc2)c2ncn(C(C)C)c2c1`, the AC50 (Caspase-6) is reported as 9.77 µM (active), the IC50 [3] is reported as 9.3 µM (active) and the IC50 (Caspase-3) is reported as 45.5 µM (active). For the same compound, the IC50 [4] was 8.07 µM (active).
In the case of `C/C1=C\[C@@H](O)C(C)(C)CCCC2(C)OC2C[C@@H]1OC(=O)c1ccc(O)cc1` (stereo not given in full), the AC50 [5] is reported as 5 µM (active).
In the case of `CC(=O)Oc1ccc2c(c1)Oc1cc(OC(C)=O)ccc1C21OC(=O)c2ccccc21` [FLUORESCEIN DIACETATE], the AC50 (ORF 73) is reported as 42 nM (active), the IC50 (Beta-lactamase [6]) is reported as > 59.6 µM (inactive) and the EC50 (Insulin-degrading enzyme [7]) is reported as > 54.7 µM (inactive). For the same compound, the EC50 (Insulin-degrading enzyme [8]) was > 54.7 µM (inactive), the EC50 (HEK293 [9]) was > 54.7 µM (inactive) and the IC50 (HEK293 [10]) was > 89.2 µM (inactive). The IC50 (Beta-lactamase [11]) was > 59.6 µM (inactive).
